These results are taken from ChEMBL document CHEMBL2177042, “Design, synthesis, and antidiabetic activity of 4-phenoxynicotinamide and 4-phenoxypyrimidine-5-carboxamide derivatives as potent and orally efficacious TGR5 agonists” (J Med Chem, 2012).

Holding throughout (type): ADME, organism-based
A short description of series [1]: Cmax in ICR mouse gall bladder at 50 mg/kg, po. Set-up: dose 50 mg/kg, route oral.
A short description of series [2]: Cmax in ICR mouse bile at 50 mg/kg, po. Set-up: dose 50 mg/kg, route oral.
A short description of series [3]: Cmax in ICR mouse plasma at 50 mg/kg, po. Set-up: dose 50 mg/kg, route oral.
A short description of series [4]: AUC (0 to 4.5 hrs) in ICR mouse gall bladder at 50 mg/kg, po. Set-up: time < 4.5 hr, dose 50 mg/kg, route oral.
A short description of series [5]: Drug level in ICR mouse gall bladder at 50 mg/kg, po after 4.5 hrs. Set-up: dose 50 mg/kg, route oral. The conditions noted are these: read-out: Drug uptake.
The nature of series [6]: Drug level in ICR mouse gall bladder at 50 mg/kg, po after 2.5 hrs. Set-up: dose 50 mg/kg, route oral. To be noted: read-out: Drug uptake.
Series [7] is described as follows: Drug level in ICR mouse gall bladder at 50 mg/kg, po after 1 hr. Also noted: dose 50 mg/kg, route oral. The conditions noted are these: read-out: Drug uptake.
The nature of series [8]: Drug level in ICR mouse gall bladder at 50 mg/kg, po after 0.5 hrs. The conditions noted are these: read-out: Drug uptake. Set-up: dose 50 mg/kg, route oral.
A short description of series [9]: AUC (0 to 4.5 hrs) in ICR mouse bile at 50 mg/kg, po. Set-up: time < 4.5 hr, dose 50 mg/kg, route oral.
A short description of series [10]: Drug level in ICR mouse bile at 50 mg/kg, po after 4.5 hrs. Also noted: dose 50 mg/kg, route oral. To be noted: read-out: Drug uptake.
Series [11] can be described thus: Drug level in ICR mouse bile at 50 mg/kg, po after 2.5 hrs. Also noted: dose 50 mg/kg, route oral. To be noted: read-out: Drug uptake.
Series [12] can be described thus: Drug level in ICR mouse bile at 50 mg/kg, po after 1 hr. Also noted: dose 50 mg/kg, route oral. The conditions noted are these: read-out: Drug uptake.
Series [13] in a line: Drug level in ICR mouse bile at 50 mg/kg, po after 0.5 hrs. Set-up: dose 50 mg/kg, route oral. The conditions noted are these: read-out: Drug uptake.
A short description of series [14]: AUC (0 to 4.5 hrs) in ICR mouse plasma at 50 mg/kg, po. Also noted: time < 4.5 hr, dose 50 mg/kg, route oral.
The nature of series [15]: Plasma concentration in ICR mouse at 50 mg/kg, po after 4.5 hrs. Set-up: dose 50 mg/kg, route oral.
Series [16] in a line: Plasma concentration in ICR mouse at 50 mg/kg, po after 2.5 hrs. Set-up: dose 50 mg/kg, route oral.
Series [17] is described as follows: Plasma concentration in ICR mouse at 50 mg/kg, po after 1 hr. Also noted: dose 50 mg/kg, route oral.
A short description of series [18]: Plasma concentration in ICR mouse at 50 mg/kg, po after 0.5 hrs. Also noted: dose 50 mg/kg, route oral.
Series [19] can be described thus: Half life in Sprague-Dawley rat at 5 mg/kg, po. To be noted: in vivo. Set-up: dose 5 mg/kg, route oral.
Series [20] in a line: MRT in Sprague-Dawley rat at 5 mg/kg, po. Set-up: dose 5 mg/kg, route oral. The conditions noted are these: in vivo.
The nature of series [21]: AUC (0 to infinity) in Sprague-Dawley rat at 5 mg/kg, po. Set-up: time infinity, dose 5 mg/kg, route oral. To be noted: plasma.
Series [22] can be described thus: AUC (0 to t) in Sprague-Dawley rat at 5 mg/kg, po. Set-up: dose 5 mg/kg, route oral. The conditions noted are these: plasma.
Series [23] in a line: Cmax in Sprague-Dawley rat at 5 mg/kg, po. Set-up: dose 5 mg/kg, route oral. The conditions noted are these: in vivo.
A short description of series [24]: Tmax in Sprague-Dawley rat at 5 mg/kg, po. The conditions noted are these: in vivo. Set-up: dose 5 mg/kg, route oral.

Consider `Cc1ccc(C)c(Oc2ccncc2C(=O)N2CCN(C3CC3)c3ccccc32)c1`, for which the Cmax amounted to 523 ng/g in [1], 3700 nM in series [2], 3600 nM in series [3] and 56 ng/mL in series [23]. Moreover, the AUC(0-t) at 4.5 h in series [4] came to 1290 ng·h/mL; in series [9], 3380 ng·h/mL; in [14], 3130 ng·h/mL. The concentration at 4.5 h in [5] turned out to be 217 ng/g; in [10], 2000 nM; in series [15], 510 nM. For the same compound, the concentration at 2.5 h stood at 306 ng/g in series [6], 2000 nM in series [11] and 2000 nM in series [16]. Further, the concentration at 1 h in series [7] was 393 ng/g; in series [12] it was 2100 nM; in [17], 2300 nM. The concentration at 0.5 h came out at 294 ng/g in series [8], 1700 nM in series [13] and 3100 nM in [18]. This compound also showed a half-life in series [19] of 1.5 h. This compound yielded a mean residence time (MRT) in series [20] of 2.4 h. The total exposure AUC(0-inf) in series [21] stood at 155 ng·h/mL. The compound also returned an AUC(0-t) in series [22] of 147 ng·h/mL. For the same compound, in series [24], the Tmax was 0.9 h.
